Laboratory results as given in patent publication US20120165576A1, “USE OF ERYTHRITOL FOR THE PREVENTION OR TREATMENT OF HYPERTENSION” (priority 2009, published 2012).
“Also recorded” adds a separate entry of the source. Read-outs that look alike come from different tables or passages of the source. Marks after values point to notes of the source that are not given here.

Tests used:
[1] = test system: sections of thoracic aorta (aortic rings); experiment: Aorta reactivity measurements: isolated aortic rings of rats after 21 days of erythritol in drinking water; assay type: in vivo, Wistar rats; settings: for CAR: relaxation induced by 100 μM carbachol / PE: Contraction induced by 10 μM phenylephrine / SNP: Relaxation induced by 100 μM SNP after stable response to 100 μM carbachol / Tot. relax: Relaxation induced by 100 μM carbachol followed by 100 μM SNP / SNP fraction: Contribution of 100 μM SNP to the total relaxation: 1 g erythritol/kg/day in drinking water, 21 days, mean ± SEM
[2] = test system: red blood cell suspension; experiment: AAPH-induced hemolysis of a red blood cell suspension; assay type: cell-based; settings: erythritol 0-50 mM, AAPH 50 mM, 37° C., FIG. 3
[3] = test system: manganese superoxide dismutase (SOD2); experiment: SOD2 expression in endothelial cells by qPCR; assay type: cell-based; settings: human umbilical vein endothelial cells (CRL-1730), erythritol 5 mM, 24 hours
Protocol: The exposure of endothelial cells to erythritol results in a increase in manganese superoxide dismutase (SOD2) transcription (FIG. 4). Cultured human umbilical vein endothelial cells (CRL-1730, which are available from ATCC) were incubated under standard conditions with erythritol (5 mM, 24 hours). Exposure to erythritol induced or stimulated a 9.4 fold increase in the expression of SOD2 as determined by qPCR (FIG. 4).
After incubation, RNA was isolated from Qiazol suspended cells according to the manufacturer's protocol and quantified using a nanodrop. Reverse transcription reaction was performed using 500 ng of total RNA, which was reverse-transcribed into cDNA using iScript™ cDNA synthesis kit. Next, real time PCR was performed with a BioRad MyiQ iCycler Single Color RT-PCR detection system using Sensimix™ Plus SYBR and Fluorescein, 5 μl diluted (10×) cDNA, and 0.3 μM primers in a total volume of 25 μl. PCR was conducted as follows: denaturation at 95° C. for 3 minutes, followed by 40 cycles of 95° C. for 15 seconds and 60° C. for 45 seconds. After PCR a melt curve (60-95° C.) was produced for product identification and purity. β-actin was included as internal control. Data were analysed using the MyIQ software system (Biorad) and were expressed as relative gene expression (fold change) using the 2^ΔΔCt method.

[4] = cited from earlier work
[5] = cited from earlier work; remark: listed apart in the source
[6] = group DE: STZ diabetic rats, N = 4
[7] = group NE: normoglycemic rats, N = 5
[8] = clinical testing, oral consumption

OCC(O)C(O)CO (stereo not shown) [erythritol, 1,2,3,4-butanetetrol]
Relaxation response of aortic rings to carbachol (in words) ([1]; diabetic rats consuming erythritol (DE), 1 g/kg/day, compared with normoglycemic rats): essentially the same as the relaxation response of normoglycemic rats; also recorded: identical to that observed in the normoglycemic rats; also recorded: higher and at the same level as found in the aortic rings of the rats of groups N and NE
CAR: relaxation induced by 100 μM carbachol [1, 6]: 0.61 ± 0.07 g
PE: Contraction induced by 10 μM phenylephrine [1, 6]: 0.60 ± 0.07 g
SNP: Relaxation induced by 100 μM SNP after stable response to 100 μM carbachol [1, 6]: 0.14 ± 0.03 g
Tot. relax: Relaxation induced by 100 μM carbachol followed by 100 μM SNP [1, 6]: 0.75 ± 0.09 g
SNP fraction: Contribution of 100 μM SNP to the total relaxation ([1]; group DE: STZ diabetic rats, N = 4, p < 0.05 compared to D): 17.8 ± 3.1^b %
CAR: relaxation induced by 100 μM carbachol [1, 7]: 0.60 ± 0.07 g
PE: Contraction induced by 10 μM phenylephrine [1, 7]: 0.70 ± 0.06 g
SNP fraction: Contribution of 100 μM SNP to the total relaxation [1, 7]: 24.7 ± 5.5^ %
SNP: Relaxation induced by 100 μM SNP after stable response to 100 μM carbachol [1, 7]: 0.21 ± 0.06 g
Tot. relax: Relaxation induced by 100 μM carbachol followed by 100 μM SNP [1, 7]: 0.81 ± 0.09 g
Effect on carbachol concentration-response curve (in words) ([1]; normoglycemic rats consuming erythritol (NE), 1 g/kg/day, FIG. 1): did not have a significant effect
Inhibition of AAPH-induced hemolysis (in words) [2]: inhibited hemolysis in a concentration-dependent manner
Lagtime (t50, time to reach 50% hemolysis) of AAPH-induced hemolysis (in words) [2]: concentration-dependently shifted the curve to the right; also recorded: concentration-dependent increase
Increase in the expression of SOD2 as determined by qPCR [3]: 9.4 fold
Time until excretion with the urine is complete ([4]; after administration): about 3 days
Systemic metabolism (in words) ([4]; in vivo): not systemically metabolized
Absorption from the gut (in words) ([4]; oral): rapidly and virtually completely absorbed
Well tolerated bolus (single) dose [5, 8]: up to 50 grams
Well tolerated daily dose [5, 8]: up to 80 grams
Well tolerated bolus (single) dose ([5]; clinical testing, oral consumption, listed as Erythritol): ≤ 50 grams
Digestive side-effects (in words) ([5]; even after consumption of large quantities): no digestive side-effects
